Assay results reported in patent publication US20260125654A1, “Method for Producing a Three-Dimensional Human Multiple-Myeloma Model” (Etablissement Français du Sang, priority 2022, published 2026).

Test system: plasma cells in MM spheroids
Test: Viability of plasma cells in 3D MM spheroids treated with melphalan, flow cytometry (CD38/CD138/DAPI)
Format: cell-based, human
Conditions: for viability at 10 µM: Homo sapiens, 10 μM melphalan
Protocol: Following a total bone marrow sample at diagnosis in patients with multiple myeloma (MM), MM plasma cells are separated and then counted in a Malassez cell. The cells were then used freshly for cocultures or were frozen in CRYOSTOR. The MM total marrow cells coming from another patient were seeded according to the initial number thereof and the cells were incubated at a temperature of 37° C. and under an atmosphere with 5% carbon dioxide for about 2 weeks. Once confluence was reached, mesenchymal stem/stromal cells (MSCs), endothelial cells and endothelial progenitors were treated with trypsin and counted.
The MSC cells, the endothelial cells and the endothelial progenitors treated with trypsin and the fresh or thawed plasmocytes in a ratio of 1 MSC per 2 plasmocytes were suspended on ULA (Ultra-Low adherence) plates in 50 μL of RPMI medium (10% FCS, 1% PS). The cells were then incubated at a temperature of 37° C. and an atmosphere with 5% carbon dioxide with stirring. 150 μL of RPMI medium were added after incubation for 24 h and the medium was renewed 2 times per week, removing 100 μL of supernatant.
A treatment with […] melphalan was added to the spheroid culture medium 48 h after the formation thereof and the culture was continued for 14 days. The selection method was supplemented by a control situation, without the presence of a drug candidate. Part of the cultures was stopped after 7 (D+7) and 11 (D+11) days to analyze the viability of the plasma cells, whereas the rest of the cultures was stopped after 14 days of culture (D+14). Spheroid cells were mechanically dissociated at 1400 rpm with AccuMax® and then transferred into a tube suitable for flow cytometry and washed with PBS and labeled with the CD38 FITC and CD138 AF700 specific antibodies in MACS buffer. The cells were then incubated at 4° C. for 30 minutes, washed and resuspended in a MACS buffer medium and filtered at 70 μm, and finally labeled with the viability marker DAPI before passing through flow cytometry.

With `N[C@@H](Cc1ccc(N(CCCl)CCCl)cc1)C(=O)O` [melphalan] the viability at 10 µM (D+7) was 5%, the viability at 10 µM (D+11) was < 5% and the viability at 10 µM (D+14) was < 10%. For the same molecule, the “response to treatment of plasma cells within spheroids” value (melphalan 10 μM) was “strong response”.
